Measured values taken from ChEMBL document CHEMBL5154682, “TDP-43 Modulation by Tau-Tubulin Kinase 1 Inhibitors: A New Avenue for Future Amyotrophic Lateral Sclerosis Therapy” (J Med Chem, 2022).
Calls of active or inactive are those of the source. No cut-off for these calls is given here.

Key:
Tau-tubulin kinase 1 [1] = molecular target: T1, Tau-tubulin kinase 1 (Homo sapiens, UniProt Q5TCY1); details: dose 10.0 µM, time 30.0 min
Tau-tubulin kinase 2 [2] = molecular target: T2, Tau-tubulin kinase 2 (Homo sapiens, UniProt Q6IQ55); details: dose 10.0 µM, time 30.0 min
[3] = Permeability of the compound at pH 7.4 PBS/EtOH buffer (70:30) by PAMPA-BBB assay
Tau-tubulin kinase 2 [4] = molecular target: T2, Tau-tubulin kinase 2; experiment: Inhibition of TTBK2 (unknown origin)
Tau-tubulin kinase 1 [5] = molecular target: T1, Tau-tubulin kinase 1
[6] = Selectivity index, ratio of IC50 for recombinant human TTBK1 to IC50 for recombinant human TTBK2
Tau-tubulin kinase 1 [7] = molecular target: T1, Tau-tubulin kinase 1; remark: listed apart in the source
Tau-tubulin kinase 2 [8] = molecular target: T2, Tau-tubulin kinase 2
SH-SY5Y [9] = experiment: Neuroprotective activity against okadaic acid-induced neurotoxicity in human SH-SY5Y cells assessed as reduction in Tau hyperphosphorylation by measuring cell viability at 1 to 5 uM incubated for 24 hrs by MTT assay; format: functional, cell-based; details: dose 1-5 µM
SH-SY5Y [10] = experiment: Neuroprotective activity against ethacrynic acid-induced neurotoxicity human SH-SY5Y cells assessed as increase in cell viability at 5 uM preincubated for 1 hr followed by ethacrynic acid addition and further incubated for 24 hrs by MTT assay; format: functional, cell-based; details: time 25.0 hrs
SH-SY5Y [11] = experiment: Neuroprotective activity against ethacrynic acid-induced neurotoxicity human SH-SY5Y cells assessed as decrease in TDP-43 phosphorylation at Ser409 at 5 uM preincubated for 1 hr followed by EA addition and further incubated for 24 hrs by Western blot analysis; format: functional, cell-based; details: time 25.0 hrs
Tau-tubulin kinase 1 [12] = molecular target: T1, Tau-tubulin kinase 1; experiment: Inhibition of TTBK1 in sporadic ALS patient derived human lymphoblasts assessed as reduction in TDP-43 phosphorylation levels at 5 to 10 uM treated for 24 hrs by Western blot analysis; format: cell-based; details: Lymphoblastoid cell, dose 5-10 µM
Tau-tubulin kinase 1 [13] = molecular target: T1, Tau-tubulin kinase 1; experiment: Inhibition of TTBK1 in sporadic ALS patient derived human lymphoblasts assessed as reduction in cytosolic TDP-43 levels at 5 to 10 uM treated for 24 hrs by Western blot analysis; format: cell-based; details: Lymphoblastoid cell, dose 5-10 µM
Tau-tubulin kinase 1 [14] = molecular target: T1, Tau-tubulin kinase 1; experiment: Inhibition of TTBK1 in sporadic ALS patient derived human lymphoblasts assessed as recovery nuclear localization of TDP-43 levels at 5 to 10 uM treated for 24 hrs by Western blot analysis; format: cell-based; details: Lymphoblastoid cell, dose 5-10 µM

T1 sequence (Q5TCY1 whole entry): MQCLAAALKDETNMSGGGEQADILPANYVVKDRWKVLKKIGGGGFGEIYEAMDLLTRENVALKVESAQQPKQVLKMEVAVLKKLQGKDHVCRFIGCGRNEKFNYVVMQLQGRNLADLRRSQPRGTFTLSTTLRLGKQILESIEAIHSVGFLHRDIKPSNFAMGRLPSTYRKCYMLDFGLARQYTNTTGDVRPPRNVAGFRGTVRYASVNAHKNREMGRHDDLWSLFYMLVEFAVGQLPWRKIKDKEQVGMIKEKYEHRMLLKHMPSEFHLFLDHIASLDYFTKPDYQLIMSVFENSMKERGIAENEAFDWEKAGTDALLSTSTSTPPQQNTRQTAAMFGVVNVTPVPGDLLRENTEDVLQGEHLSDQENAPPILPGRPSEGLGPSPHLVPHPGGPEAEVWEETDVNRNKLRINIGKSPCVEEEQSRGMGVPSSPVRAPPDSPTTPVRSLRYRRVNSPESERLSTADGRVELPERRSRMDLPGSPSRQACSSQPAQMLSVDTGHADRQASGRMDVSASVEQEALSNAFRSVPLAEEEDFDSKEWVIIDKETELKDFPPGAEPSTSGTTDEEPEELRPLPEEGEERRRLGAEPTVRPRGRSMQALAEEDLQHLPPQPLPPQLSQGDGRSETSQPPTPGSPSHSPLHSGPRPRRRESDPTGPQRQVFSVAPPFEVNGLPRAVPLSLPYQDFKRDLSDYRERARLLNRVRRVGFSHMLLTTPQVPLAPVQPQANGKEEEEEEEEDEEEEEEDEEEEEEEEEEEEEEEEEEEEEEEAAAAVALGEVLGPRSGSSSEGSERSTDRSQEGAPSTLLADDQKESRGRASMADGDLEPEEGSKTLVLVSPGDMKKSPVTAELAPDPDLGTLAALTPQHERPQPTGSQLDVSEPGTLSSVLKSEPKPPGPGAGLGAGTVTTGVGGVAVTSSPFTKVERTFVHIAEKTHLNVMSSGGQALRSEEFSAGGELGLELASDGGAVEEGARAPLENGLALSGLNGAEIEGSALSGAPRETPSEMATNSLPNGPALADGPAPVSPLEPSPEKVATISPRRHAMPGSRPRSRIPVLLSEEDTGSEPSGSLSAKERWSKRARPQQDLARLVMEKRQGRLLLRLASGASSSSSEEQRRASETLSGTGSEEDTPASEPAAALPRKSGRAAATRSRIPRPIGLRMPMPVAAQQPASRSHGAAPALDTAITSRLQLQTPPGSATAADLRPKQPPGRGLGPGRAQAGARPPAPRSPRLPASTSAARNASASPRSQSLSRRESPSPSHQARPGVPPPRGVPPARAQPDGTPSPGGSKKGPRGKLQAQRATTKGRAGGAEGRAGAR
T2 sequence (Q6IQ55 whole entry): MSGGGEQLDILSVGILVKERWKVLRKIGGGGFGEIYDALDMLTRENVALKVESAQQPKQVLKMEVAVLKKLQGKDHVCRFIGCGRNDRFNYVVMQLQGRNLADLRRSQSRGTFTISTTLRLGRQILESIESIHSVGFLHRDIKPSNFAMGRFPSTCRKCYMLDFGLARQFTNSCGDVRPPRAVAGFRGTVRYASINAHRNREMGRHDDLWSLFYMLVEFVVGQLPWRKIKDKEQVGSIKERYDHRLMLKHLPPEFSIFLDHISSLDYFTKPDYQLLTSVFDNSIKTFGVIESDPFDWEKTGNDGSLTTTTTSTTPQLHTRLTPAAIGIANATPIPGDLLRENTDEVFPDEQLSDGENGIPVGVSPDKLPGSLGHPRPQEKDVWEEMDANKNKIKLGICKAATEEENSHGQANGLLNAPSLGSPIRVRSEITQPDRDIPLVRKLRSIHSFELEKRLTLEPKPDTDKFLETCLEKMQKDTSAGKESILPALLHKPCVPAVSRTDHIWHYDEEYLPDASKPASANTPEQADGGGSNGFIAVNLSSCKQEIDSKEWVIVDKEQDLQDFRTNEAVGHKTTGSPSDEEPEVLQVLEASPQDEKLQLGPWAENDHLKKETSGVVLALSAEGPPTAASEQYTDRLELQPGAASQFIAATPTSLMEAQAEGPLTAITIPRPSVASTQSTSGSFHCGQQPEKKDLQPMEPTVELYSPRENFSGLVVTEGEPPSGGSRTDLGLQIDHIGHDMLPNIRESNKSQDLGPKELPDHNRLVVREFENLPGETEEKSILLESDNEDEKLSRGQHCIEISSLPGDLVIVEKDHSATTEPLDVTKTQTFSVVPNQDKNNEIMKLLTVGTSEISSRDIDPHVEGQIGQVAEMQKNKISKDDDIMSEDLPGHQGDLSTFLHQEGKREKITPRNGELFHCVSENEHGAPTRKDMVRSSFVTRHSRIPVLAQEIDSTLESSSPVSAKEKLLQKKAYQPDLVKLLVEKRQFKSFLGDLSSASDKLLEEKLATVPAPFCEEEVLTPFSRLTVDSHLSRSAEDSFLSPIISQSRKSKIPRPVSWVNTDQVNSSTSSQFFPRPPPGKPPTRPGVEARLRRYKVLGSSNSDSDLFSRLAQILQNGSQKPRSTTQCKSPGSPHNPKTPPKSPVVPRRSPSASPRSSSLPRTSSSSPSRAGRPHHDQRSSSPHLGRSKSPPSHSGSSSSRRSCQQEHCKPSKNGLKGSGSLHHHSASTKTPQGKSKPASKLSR

SMILES | permeability [3] | Selectivity Index [6] | IC50 (Tau-tubulin kinase 1 [7]) [µM] | IC50 (Tau-tubulin kinase 2 [8]) [µM] | other results
Clc1ccc(Nc2ncnc3[nH]ncc23)cc1 |  |  |  |  | inhibition (Tau-tubulin kinase 1 [1]): 8%; inhibition (Tau-tubulin kinase 2 [2]): 1%
Oc1ccc(CNc2ncnc3[nH]ccc23)cc1 |  |  |  |  | inhibition (Tau-tubulin kinase 1 [1]): 23%; inhibition (Tau-tubulin kinase 2 [2]): 10%
CC1(N)CCN(Cc2ccn3ncnc(Nc4cc(O)cc(Br)c4)c23)CC1 |  |  |  |  | IC50 (Tau-tubulin kinase 2 [4]): 0.17 µM
CC[C@@](C)(O)C#Cc1cc2c(ccn2-c2cc(OC)nc(N)n2)cn1 |  |  |  |  | IC50 (Tau-tubulin kinase 2 [4]): 0.0027 µM; IC50 (Tau-tubulin kinase 1 [5]): 0.0016 µM
CNCCCN1c2ccccc2CCc2ccccc21 [DESIPRAMINE] | Permeable |  |  |  | 
Clc1ccccc1Cn1cc(COc2ccc(Nc3ncnc4[nH]ccc34)cc2)nn1 | Impermeable | 0.13 | 0.36 | 2.75 | 
Oc1ccccc1Nc1ncnc2[nH]ccc12 |  |  |  |  | inhibition (Tau-tubulin kinase 1 [1]): 14%; inhibition (Tau-tubulin kinase 2 [2]): 1%
Clc1ccc(Nc2ncnc3sccc23)cc1 |  |  |  |  | inhibition (Tau-tubulin kinase 1 [1]): 20%
FC(F)(F)Oc1ccc(Nc2ncnc3[nH]ccc23)cc1 | Impermeable | 0.11 | 1 | 8.8 | 
c1ccc(Nc2ncnc3sccc23)cc1 |  |  |  |  | inhibition (Tau-tubulin kinase 1 [1]): 17%
c1ccc(Nc2ncnc3[nH]ccc23)cc1 | Permeable | 0.47 | 0.79 | 1.68 | 
O=C(c1ccc(Nc2ncnc3[nH]ccc23)cc1)c1ccc(Cl)c(Cl)c1 |  |  |  |  | inhibition (Tau-tubulin kinase 1 [1]): 9%
c1nc(Nc2ccc(N3CCOCC3)cc2)c2cc[nH]c2n1 |  | 0.3 | 4.9 | 15.7 | 
Oc1cccc(Nc2ncnc3[nH]ncc23)c1 |  | 0.22 | 9.15 |  | inhibition (Tau-tubulin kinase 2 [2]): 13%
Cn1c(=O)c2c(ncn2C)n(C)c1=O [CAFFEINE] | Permeable |  |  |  | 
Cc1ccc(Cn2cc(COc3ccc(Nc4ncnc5[nH]ccc45)cc3)nn2)cc1 | Impermeable | 0.57 | 0.99 | 1.75 | 
CCOc1ccc(Nc2ncnc3[nH]ccc23)cc1 | Impermeable | 0.16 | 2.3 | 13.7 | Activity (SH-SY5Y [9]): Active
Clc1ccc(Oc2ccc(Nc3ncnc4[nH]ccc34)cc2)cc1Cl | Permeable | 0.4 | 2.3 | 5.72 | 
O=C(c1ccccc1)c1ccc(Nc2ncnc3[nH]ccc23)cc1 | Permeable |  |  |  | Activity (SH-SY5Y [9]): Active
c1nc(Nc2ccc(N3CCOCC3)cc2)c2cn[nH]c2n1 |  |  |  |  | inhibition (Tau-tubulin kinase 1 [1]): 25%; inhibition (Tau-tubulin kinase 2 [2]): 12%
c1cc(Nc2ncnc3[nH]ccc23)cc(N2CCOCC2)c1 |  | 0.82 | 4.7 | 5.7 | 
Clc1cccc(Nc2ncnc3[nH]ccc23)c1 |  | 1.09 | 15.2 | 13.9 | 
Nc1nc(Nc2ccc(Oc3ccc(C(F)(F)F)cc3)cc2)c2cc[nH]c2n1 | Permeable | 0.13 | 0.38 |  | Activity (SH-SY5Y [9]): Active
Oc1ccc(CCNc2ncnc3[nH]ccc23)cc1 |  | 0.33 | 12.8 | 37.7 | 

SMILES | permeability [3] | Selectivity Index [6] | IC50 (Tau-tubulin kinase 1 [7]) [µM] | IC50 (Tau-tubulin kinase 2 [8]) [µM] | other results
Oc1ccc(Nc2ncnc3[nH]ccc23)cc1 |  | 0.45 | 3 | 7.4 | 
CN1C(C(=O)Nc2ccccn2)=C(O)c2ccccc2S1(=O)=O [PIROXICAM] | Permeable |  |  |  | 
COC(=O)c1cc(Nc2ncnc3[nH]ccc23)ccc1Br |  |  | 2.2 | 4.2 | 
Clc1ccc(CNc2ncnc3[nH]ccc23)cc1 |  |  |  |  | inhibition (Tau-tubulin kinase 1 [1]): 32%; inhibition (Tau-tubulin kinase 2 [2]): 10%
Oc1ccc(Nc2ncnc3[nH]ncc23)cc1 |  |  |  |  | inhibition (Tau-tubulin kinase 1 [1]): 3%; inhibition (Tau-tubulin kinase 2 [2]): 1%
CC(C)Oc1ccc(Nc2ncnc3[nH]ccc23)cc1 | Permeable | 0.17 | 1.5 | 8.4 | Activity (SH-SY5Y [9]): Active
c1nc(NC2CCCCC2)c2cc[nH]c2n1 |  |  |  |  | inhibition (Tau-tubulin kinase 1 [1]): 3%; inhibition (Tau-tubulin kinase 2 [2]): 15%
COc1cccc(Oc2ccc(Nc3ncnc4[nH]ccc34)cc2)c1 | Permeable |  |  |  | Activity (SH-SY5Y [9]): Active
Clc1ccc(Nc2ncnc3[nH]ccc23)cc1 |  | 0.15 | 3.2 | 20.3 | 
FC(F)(F)c1cccc(Oc2ccc(Nc3ncnc4[nH]ccc34)cc2)c1 |  |  |  |  | inhibition (Tau-tubulin kinase 2 [2]): 1%
Clc1ccc(Cn2cc(COc3ccc(Nc4ncnc5[nH]ccc45)cc3)nn2)cc1 | Impermeable | 0.21 | 0.61 | 2.87 | 
Oc1cccc(Nc2ncnc3[nH]ccc23)c1 |  | 0.9 | 6.1 | 6.7 | 
Clc1ccc(CCNc2ncnc3[nH]ccc23)cc1 |  |  | 18.2 | 86 | 
Cc1ccc(Oc2ccc(Nc3ncnc4[nH]ccc34)cc2)cc1 | Permeable |  |  |  | Activity (SH-SY5Y [10]): Active; Activity (SH-SY5Y [11]): Active; Activity (SH-SY5Y [9]): Active
Clc1ccccc1Nc1ncnc2[nH]ccc12 |  | 0.51 | 21.8 | 42.1 | 
CC(=O)c1ccc(Nc2ncnc3[nH]ccc23)cc1 |  | 0.46 | 4.3 | 9.3 | 
c1cc(Nc2ncnc3[nH]ccc23)c2c(c1)OCO2 | Permeable | 0.21 | 1.58 | 7.58 | Activity (SH-SY5Y [9]): Active
c1cc2c(c(Nc3ncnc4[nH]ccc34)c1)CCCC2 |  |  |  |  | inhibition (Tau-tubulin kinase 1 [1]): 23%; inhibition (Tau-tubulin kinase 2 [2]): 10%
c1ccc(-n2cc(COc3ccc(Nc4ncnc5[nH]ccc45)cc3)nn2)cc1 |  |  |  |  | inhibition (Tau-tubulin kinase 1 [1]): 29%; inhibition (Tau-tubulin kinase 2 [2]): 1%
c1cncc(Oc2ccc(Nc3ncnc4[nH]ccc34)cc2)c1 | Impermeable | 0.12 | 0.75 | 6.05 | 
FC(F)(F)c1ccc(Oc2ccc(Nc3ncnc4[nH]ccc34)cc2)cc1 |  |  |  |  | inhibition (Tau-tubulin kinase 2 [2]): 5%
COc1ccc(Nc2ncnc3[nH]ccc23)cc1 | Impermeable | 0.39 | 0.52 | 1.32 | 
Clc1cccc(Cn2cc(COc3ccc(Nc4ncnc5[nH]ccc45)cc3)nn2)c1 | Impermeable | 0.24 | 0.48 | 2.03 | 
c1ccc(CCn2cc(COc3ccc(Nc4ncnc5[nH]ccc45)cc3)nn2)cc1 | Impermeable | 0.15 | 0.39 | 2.61 | 

More lines, main results first:

permeability [3] | SMILES | Selectivity Index [6] | IC50 (Tau-tubulin kinase 1 [7]) [µM] | IC50 (Tau-tubulin kinase 2 [8]) [µM] | other results
Permeable | O=[N+]([O-])c1ccc(Oc2ccc(Nc3ncnc4[nH]ccc34)cc2)cc1 |  |  |  | 
Permeable | CCn1cc(C(=O)O)c(=O)c2cc(F)c(N3CCNCC3)nc21 [ENOXACIN] |  |  |  | 
Permeable | Brc1ccc(Oc2ccc(Nc3ncnc4[nH]ccc34)cc2)cc1 |  |  |  | 
Permeable | Nc1nc(Nc2ccc(Oc3ccc(Cl)cc3)cc2)c2cc[nH]c2n1 |  |  |  | 
Permeable | Nc1ccc(Sc2ccc(Nc3ncnc4[nH]ccc34)cc2)cc1 |  |  |  | 
Permeable | c1ccc(Oc2ccc(Nc3ncnc4[nH]ccc34)cc2)cc1 |  |  |  | 
Permeable | O=C(c1ccc(F)cc1)c1ccc(Nc2ncnc3[nH]ccc23)cc1 |  |  |  | 
Permeable | Clc1ccccc1Oc1ccc(Nc2ncnc3[nH]ccc23)cc1 |  |  |  | 
Permeable | c1ccc(COc2ccc(Nc3ncnc4[nH]ccc34)cc2)cc1 |  |  |  | 
Permeable | Nc1nc(Nc2ccc(Oc3cccc(Cl)c3)cc2)c2cc[nH]c2n1 | 0.12 |  |  | 
Permeable | CN(C)CCCN1c2ccccc2Sc2ccccc21 [PROMAZINE] |  |  |  | 
Permeable | Fc1ccc(Oc2ccc(Nc3ncnc4[nH]ccc34)cc2)cc1 | 0.25 |  |  | 
Permeable | Clc1cccc(Oc2ccc(Nc3ncnc4[nH]ccc34)cc2)c1 |  |  |  | inhibition (Tau-tubulin kinase 2 [2]): 1%; Activity (SH-SY5Y [10]): Active; Activity (SH-SY5Y [11]): Active; Activity (SH-SY5Y [9]): Active; Activity (Tau-tubulin kinase 1 [12]): Active; Activity (Tau-tubulin kinase 1 [13]): Active; Activity (Tau-tubulin kinase 1 [14]): Active
Permeable | Nc1nc(Nc2ccc(Oc3cccc(C(F)(F)F)c3)cc2)c2cc[nH]c2n1 | 0.33 |  |  | 
Permeable | COc1ccc(Oc2ccc(Nc3ncnc4[nH]ccc34)cc2)cc1 |  |  |  | 
Permeable | Cc1cccc(Oc2ccc(Nc3ncnc4[nH]ccc34)cc2)c1 |  |  |  | 
